Measured values taken from PubChem BioAssay AID256 (DTP/NCI, 2004).
“And” between values parts separate entries of the source, which are not always exact repeats. Equal entries are not always repeated. Inconclusive results and toxic doses are left out. The calls were made as follows: active = survival T/C of 150% or more; inactive = T/C below 125% in these data.

System: CD2F1 mice, L1210 leukemia ip, survival T/C
Experiment: NCI In Vivo Anticancer Drug Screen. Data for tumor model L1210 Leukemia (intraperitoneal) in CD2F1 (CDF1) mice
Conditions: higher = longer survival
Outline: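 In this screen, transplantable tumors were grown in mice given either the compound or its vehicle. Results were expressed as the treated measurement relative to the control measurement.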

[1] = endpoint: mean survival time, dose: 100.0 mg/kg/injection, schedule: Q01DX009 (ip), vehicle: saline with Tween-80
[2] = endpoint: mean survival time, dose: 100.0 mg/kg/injection, schedule: Q04DX003 (ip), vehicle: saline with Tween-80
[3] = endpoint: mean survival time, dose: 200.0 mg/kg/injection, schedule: Q01DX009 (ip), vehicle: saline with Tween-80
[4] = endpoint: mean survival time, dose: 200.0 mg/kg/injection, schedule: Q04DX003 (ip), vehicle: saline with Tween-80
[5] = endpoint: mean survival time, dose: 400.0 mg/kg/injection, schedule: Q01DX009 (ip), vehicle: saline with Tween-80
[6] = endpoint: mean survival time, dose: 400.0 mg/kg/injection, schedule: Q04DX003 (ip), vehicle: saline with Tween-80
[7] = endpoint: mean survival time, dose: 50.0 mg/kg/injection, schedule: Q01DX009 (ip), vehicle: saline with Tween-80
[8] = endpoint: mean survival time, dose: 100.0 mg/kg/injection, schedule: Q01DX001 (ip), vehicle: saline
[9] = endpoint: mean survival time, dose: 200.0 mg/kg/injection, schedule: Q01DX001 (ip), vehicle: saline
[10] = endpoint: mean survival time, dose: 400.0 mg/kg/injection, schedule: Q01DX001 (ip), vehicle: saline
[11] = endpoint: mean survival time, dose: 100.0 mg/kg/injection, schedule: Q04DX002 (ip), vehicle: saline with Tween-80
[12] = endpoint: mean survival time, dose: 200.0 mg/kg/injection, schedule: Q04DX002 (ip), vehicle: saline with Tween-80
[13] = endpoint: mean survival time, dose: 400.0 mg/kg/injection, schedule: Q04DX002 (ip), vehicle: saline with Tween-80

Measured: T/C

O=C1N(C2CCCCC2)CC2C(c3ccccc3)NNC12O (configuration not stated)
inactive: [1] 103 % of control | [2] 97 % of control | [3] 90 % of control | [4] 97 % of control | [5] 100 % of control | [6] 98 % of control

NCc1ccc([N+](=O)[O-])cc1Cl
inactive: [7] 94 % of control | [1] 94 % of control

O=CC(O)CO (configuration not stated)
inactive: endpoint: median survival time, dose: 129.6 mg/kg/injection, schedule: Q ##X015 (sc), vehicle: saline 109 % of control | endpoint: median survival time, dose: 129.6 mg/kg/injection, schedule: Q## X015 (sc), vehicle: saline 112 % of control | endpoint: median survival time, dose: 216.0 mg/kg/injection, schedule: Q ##X015 (sc), vehicle: saline 108 % of control | endpoint: median survival time, dose: 216.0 mg/kg/injection, schedule: Q## X015 (sc), vehicle: saline 112 % of control | endpoint: median survival time, dose: 360.0 mg/kg/injection, schedule: Q ##X015 (sc), vehicle: saline 119 % of control | endpoint: median survival time, dose: 360.0 mg/kg/injection, schedule: Q## X015 (sc), vehicle: saline 118 % of control | endpoint: median survival time, dose: 600.0 mg/kg/injection, schedule: Q ##X015 (sc), vehicle: saline 110 % of control | endpoint: median survival time, dose: 600.0 mg/kg/injection, schedule: Q## X015 (sc), vehicle: saline 112 % of control

O=C(O)c1cccc2[nH][nH]c(=O)c12
inactive: endpoint: mean survival time, dose: 100.0 mg/kg/injection, schedule: Q01DX001 (ip), vehicle: saline with Tween-80 100 % of control | [1] 101 % of control | endpoint: mean survival time, dose: 200.0 mg/kg/injection, schedule: Q01DX001 (ip), vehicle: saline with Tween-80 102 % of control | [3] 100 % of control | endpoint: mean survival time, dose: 400.0 mg/kg/injection, schedule: Q01DX001 (ip), vehicle: saline with Tween-80 100 % of control | [5] 98 % of control

CCOC(=O)Nc1ccc(S(=O)(=O)O)cc1
inactive: [8] 94 % of control | [9] 105 % of control | [10] 98 % of control

Cc1cc2c(C(C)C)c(O)c(O)c(C=O)c2c(O)c1-c1c(C)cc2c(C(C)C)c(O)c(O)c(C=O)c2c1O
inactive: endpoint: median survival time, dose: 6.25 mg/kg/injection, schedule: Q01DX009 (ip), vehicle: saline with Tween-80 110 % of control | endpoint: median survival time, dose: 12.5 mg/kg/injection, schedule: Q01DX009 (ip), vehicle: saline with Tween-80 101 % of control

CC(=O)CN(C(C)=O)c1ccccc1
inactive: [11] 105 % of control | [12] 97 % of control | [13] 109 % of control

CC12CCC(=O)C=C1CCC1C2CCC2(C)C1CCC2(O)C(=O)Cn1c(=O)[nH]cc(F)c1=O (configuration not stated)
inactive: endpoint: mean survival time, dose: 12.5 mg/kg/injection, schedule: Q04DX003 (ip), vehicle: Klucel (hydroxypropylcellulose) (HPC) 93 % of control | endpoint: mean survival time, dose: 25.0 mg/kg/injection, schedule: Q04DX003 (ip), vehicle: Klucel (hydroxypropylcellulose) (HPC) 96 % of control | endpoint: mean survival time, dose: 50.0 mg/kg/injection, schedule: Q04DX003 (ip), vehicle: Klucel (hydroxypropylcellulose) (HPC) 93 % of control | endpoint: mean survival time, dose: 100.0 mg/kg/injection, schedule: Q04DX003 (ip), vehicle: Klucel (hydroxypropylcellulose) (HPC) 100 % of control | endpoint: mean survival time, dose: 200.0 mg/kg/injection, schedule: Q04DX003 (ip), vehicle: Klucel (hydroxypropylcellulose) (HPC) 96 % of control

C=C(C)C1CCC2(C(=O)O)CCC3(C)C(CCC4C5(C)CCC(OC(C)=O)C(C)(C)C5CCC43C)C12 (configuration not stated)
inactive: endpoint: mean survival time, dose: 100.0 mg/kg/injection, schedule: Q01DX001 (ip), vehicle: Klucel (hydroxypropylcellulose) (HPC) 93 % of control | endpoint: mean survival time, dose: 200.0 mg/kg/injection, schedule: Q01DX001 (ip), vehicle: Klucel (hydroxypropylcellulose) (HPC) 93 % of control | endpoint: mean survival time, dose: 400.0 mg/kg/injection, schedule: Q01DX001 (ip), vehicle: Klucel (hydroxypropylcellulose) (HPC) 91 % of control

O=C(Nc1ccc(Cl)c(C(F)(F)F)c1)Nc1cc(Cl)ccc1Sc1cc(Cl)c(Cl)cc1S(=O)(=O)O
inactive: endpoint: mean survival time, dose: 100.0 mg/kg/injection, schedule: Q01DX001 (ip), vehicle: saline sonified 102 % of control | [1] 100 % of control | endpoint: mean survival time, dose: 200.0 mg/kg/injection, schedule: Q01DX001 (ip), vehicle: saline sonified 93 % of control | [3] 105 % of control | endpoint: mean survival time, dose: 400.0 mg/kg/injection, schedule: Q01DX001 (ip), vehicle: saline sonified 93 % of control | [5] 102 % of control

CC(=O)Nc1ncc2nc(C)c(C)nc2n1
inactive: [7] 98 % of control

CC(O)(CCc1ccccc1)CC(O)(C(F)(F)F)C(F)(F)F (configuration not stated)
inactive: endpoint: mean survival time, dose: 100.0 mg/kg/injection, schedule: Q01DX009 (ip), vehicle: other 96 % of control | [1] 97 % of control | endpoint: mean survival time, dose: 200.0 mg/kg/injection, schedule: Q01DX009 (ip), vehicle: other 102 % of control | [3] 102 % of control | endpoint: mean survival time, dose: 400.0 mg/kg/injection, schedule: Q01DX009 (ip), vehicle: other 98 % of control | [5] 108 % of control

Nc1c(Br)cc(Br)c2c1CCC2
inactive: [11] 94 % of control | [12] 105 % of control | [13] 94 % of control

O=N[O-].O=N[O-].[Co].[NH-]CC[NH-].[NH-]CC[NH-]
inactive: endpoint: mean survival time, dose: 50.0 mg/kg/injection, schedule: Q04DX002 (ip), vehicle: saline with Tween-80 93 % of control | endpoint: mean survival time, dose: 75.0 mg/kg/injection, schedule: Q01DX001 (ip), vehicle: saline 103 % of control | [11] 100 % of control | endpoint: mean survival time, dose: 150.0 mg/kg/injection, schedule: Q01DX001 (ip), vehicle: saline 113 % of control | [12] 96 % of control

COc1cc(NCc2ccc3nc(N)nc(N)c3c2C)cc(OC)c1OC (tested in a mixture with another compound)
inactive: endpoint: median survival time, dose: 10.0 mg/kg/injection, schedule: Q01DX005 (ip), vehicle: water 115 % of control

OCC1OC(Sc2cc(Cl)ccc2Cl)C(O)C(O)C1O (configuration not stated)
inactive: [8] 103 % of control | [9] 100 % of control | [10] 100 % of control

CC(=O)Nc1ccccc1C#N
inactive: [1] 98 % of control | [3] 98 % of control | [5] 113 % of control

C#CC(O)C(CC)CCCC (configuration not stated)
inactive: [7] 99 % of control | [1] 94 % of control

CSc1ccnc2ccccc12
inactive: endpoint: mean survival time, dose: 12.5 mg/kg/injection, schedule: Q01DX009 (ip), vehicle: other 106 % of control | endpoint: mean survival time, dose: 25.0 mg/kg/injection, schedule: Q01DX009 (ip), vehicle: other 100 % of control | endpoint: mean survival time, dose: 50.0 mg/kg/injection, schedule: Q01DX009 (ip), vehicle: other 103 % of control

C[N+](C)(C)C.[Cl][Fe]([Cl])([Cl])[Cl]
inactive: endpoint: mean survival time, dose: 3.13 mg/kg/injection, schedule: Q01DX009 (ip), vehicle: saline 94 % of control | endpoint: mean survival time, dose: 6.25 mg/kg/injection, schedule: Q01DX009 (ip), vehicle: saline 97 % of control | endpoint: mean survival time, dose: 12.5 mg/kg/injection, schedule: Q01DX009 (ip), vehicle: saline 91 % of control

COc1cc(OC)c(NC(=O)Nc2cc(C)on2)cc1Cl
inactive: endpoint: mean survival time, dose: 12.5 mg/kg/injection, schedule: Q01DX009 (ip), vehicle: saline with Tween-80 98 % of control | endpoint: mean survival time, dose: 25.0 mg/kg/injection, schedule: Q01DX009 (ip), vehicle: saline with Tween-80 92 % of control | [7] 95 % of control

CC(=O)SC(c1ccccc1)(c1ccccc1)c1ccccc1
inactive: [2] 95 % of control and 103 % of control | [4] 91 % of control and 97 % of control | [6] 90 % of control and 100 % of control

c1ccc(CNCCNCc2ccccc2)cc1
inactive: [1] 95 % of control | [2] 97 % of control
